Reference: US20100120662A1, “Glucose uptake modulator and method for treating diabetes or diabetic complications” (POSTECH Foundation, priority 2005, published 2010)
Ends that are not written are not given here.

Tests used:
insulin receptor (IR) [1] = experiment: IR autophosphorylation in hIRcB cells; format: cell-based, human
Description: FIG. 12A shown a comparison of insulin sensitizing effect among CRF family which was obtained by incubating cells with 1 μM CRF family and/or 2 nM insulin or with medium alone for 1 min. […] FIG. 12B was obtained by incubating cells with 2 nM insulin and variant dose of UCN (from 2 nM to 1 μM) for 1 min. FIG. 12C was obtained by incubating cells 100 nM UCN and variant dose of insulin for 1 min. Phosphorlyation of IR was assessed by western blotting with anti-pTyr antibodies. FIG. 13D was obtained by incubating cells with 100 nM UCN and/or 10 nM insulin for 0, 2, 10, 30, and 60 min, and then assessing the phosphorlyation of IR by western blotting with anti-pIR antibodies. Quantization of IR autophosphorylation was measured with image gauge software (Fuji film). The values are the mean±S.E. for three experiments. *, P<0.05
hIRcB cells were maintained in DMEM, supplemented with 10% (v/v) FBS. The cells were grown at 37° C. in a humidified atmosphere of 5% CO2 and 95% air.
After treatment of ligands as indicated time and dose, the cells were washed with cold PBS and lysed with lysis buffer (50 mM HEPES pH 7.5, 150 mM NaCl, 1%
Triton X-100, 1 mM EDTA, 10% glycerol) containing protease inhibitors (0.5 mM PMSF, 1 μg/ml leupeptin and 5 μg/ml aprotinin) and phosphatase inhibitors (30 mM NaF, 1 mM Na3VO4 and 30 mM Na4O7P2). The cell lysates were incubated for 1 hr at 4° C. After centrifugation (14,000×g for 15 min), equal amounts of soluble extract were incubated, for 4 hrs, with 5 μg of anti-IR antibody and 30 μl of resin volume of immobilized protein A. For gel electrophoresis, the precipitates were dissolved in Laemmli sample buffer. The sample was separated by SDS-PAGE and transferred to a nitrocellulose membrane (Schleicher and Schuell, BA85). Blocking was performed with TTBS buffer (10 mM Tris/HCl, pH 7.5, 150 mM NaCl, and 0.05% Tween 20) containing 5% skimmed milk powder. The membrane was probed with primary for 3 hrs at room temperature. Subsequently the immunoblot was washed and incubated with horseradish peroxidase-linked secondary antibody for 1 hr at room temperature, rinsed four times in TTBS buffer, and developed with horseradish peroxidase-dependent chemiluminescence reagents (Amersham International, United Kingdom).

C2C12 myotubules = experiment: Glucose uptake in C2C12 myotubules (UCN); format: cell-based; settings: in the presence of UCN
Description: (§1) UCN enhanced insulin-induced glucose uptake and phosphorylation of IR, IRS and Akt. Myotubules were incubated with 2 nM UCN and/or variant insulin dose (0-50 nm) for 1 min (Inserted immunoblot data). Phosphorylation of IRS and Akt was assessed by western blot analysis with anti-pIRS and anti-pAkt antibodies. Glucose uptake was determined as below.
(§2) C2C12 cells were maintained in DMEM, supplemented with 10% (v/v) FBS. The cells were grown at 37° C. in a humidified atmosphere of 5% CO2 and 95% air. For the differentiation of C2C12 cells, growing media was changed to DMEM, supplemented with 2% (v/v) ES and cultured for 7 days.
After differentiation, cells were washed and incubated during 3 hrs with 2 ml Krebs-Ringer phosphate (KRP) containing 130 mM NaCl, 5 mM KCl, 1.3 mM CaCl2.2H2O, 1.3 mM MgSO4.7H2O, and 10 mM Na2HPO4.7H2O, pH 7.4. To determine the effect of UCN on glucose uptake, 10 min incubation in 1 ml of KRP at indicated conditions was carried out. The reaction was performed by adding a mixture of [^14C] 2-DG (1 μCi/ml) and non-radioactive 2-DG (final concentration of 20 mM) for 10 min. […] Cell-associated radioactivity was determined by lysing the cells in 1 N NaOH and followed by scintillation counting. Non-specific uptake was measured by incubating the cells with cytochalasin B (20 μM/ml). […]

IR, IRS and Akt = experiment: Phosphorylation of IR, IRS and Akt in C2C12 myotubules; format: cell-based
Description: as §1, §2
Immunoprecipitation and immunoblot was performed according to the method of EXAMPLE 8.

ICR mice = experiment: Blood glucose in normal ICR mice after intravenous UCN; format: in vivo, mouse; settings: i.v.
Description: (§3) The inserted immunoblot data is about IR phosphorylation by UCN in skeletal muscle. Mice were injected (intravenously) with either vehicle (0.1% BSA in saline) or UCN (0.1-100 μM). Values are the mean±S.D. for four control and four UCN-treated mice. […] The inserted immunoblot data was about IR phosphorylation by treatment of UCN in skeletal muscle of STZ mouse. Mice were injected (intravenously) with vehicle (0.1% BSA in saline), UCN (0.1 μM) and/or insulin (1 nM). And plasma levels of glucose were measured during 45 min. Values are the mean±S.D. for six mice each group. *, P<0.05.
For prepare the normal test animal, male Institute of Cancer Research (ICR) mice weighing 20-25 g, aged 8 weeks, were obtained from the Hyochang Science were housed four to cage in a temperature- and light-controlled room (20-22° C.; 12-hrs light, 12-hrs dark cycle; lights on at 07:00 hr) and were provided with regular diet chow and water ad libitum. The laboratory procedures used conformed to the guidelines of the Korea Government Guide for the Care of Use of Laboratory Animals. In the in vivo study, after fasting overnight, mice were injected to intravenous vein with 0.1% BSA saline or UCN, then plasma glucose was measured on a time by glucose analyzer (model AGM-2100, allmedicus Inc., anyang, Korea)

STZ-mouse = experiment: Blood glucose in STZ mice after intravenous UCN and/or insulin; format: in vivo
Description: as §3
For preparing STZ-mouse, male Institute of Cancer Research (ICR) mice weighing 20-25 g, aged 8 weeks, were obtained from the Hyochang Science. STZ-induced diabetic mice were prepared by administering an intraperineal injection of STZ (Sigma Chemical, St. Louis, Mo.) (75 mg/kg) to male ICR mice after the animals were fasted for 1 day. And the next day had one more injection of STZ. Mice with plasma glucose concentrations ≧280 mg/dl were considered to have type 1 diabetes. All tests were carried out 3 days after the injection of STZ.

insulin receptor (IR) [2] = experiment: IR phosphorylation in mouse skeletal muscle; format: in vivo; settings: soleus muscle, 15 min after i.v. injection
Description: After fasting overnight, mice were injected iv with agonist. After 15 min, mice were killed by soleus muscles were rapidly excised and were immediately frozen in liquid nitrogen. Lysates were prepared by homogenizing the tissues in lysis buffer (50 mM HEPES pH 7.5, 150 mM NaCl, 1% Triton X-100, 1 mM EDTA, 10% glycerol) containing protease inhibitors (0.5 mM PMSF, 1 μg/ml leupeptin and 5 μg/ml aprotinin) and phosphatase inhibitors (30 mM NaF, 1 mM Na3VO4 and 30 mM Na4O7P2). Debris was removed by centrifugation at 14,000 rpm for 10 min at 4° C. Immunoprecipitation and Western blots were performed as previously described.

Substance: urocortin (DNPSLSIDLTFHLLRTLLELARTQSQRERAEQNRIIFDSV; ends and bridges not checked; UniProt P55089 83-122, looked up) [UCN, a 40 amino acid peptide as a member of the corticotrophin release factor (CRF) family]
- insulin-mediated IR phosphorylation (insulin receptor (IR) [1]; 1 μM CRF family peptide with 2 nM insulin, 1 min, hIRcB cells): potentate insulin-mediated IR phosphorylation
- dose and time dependence of insulin sensitizing effect (insulin receptor (IR) [1]; UCN 2 nM to 1 μM with 2 nM insulin, 100 nM UCN with 10 nM insulin 0-60 min): increased in dose (12B,12C) and time (12D) dependent manner
- potency in potentiating insulin-mediated IR phosphorylation compared with CRF (insulin receptor (IR) [1]; hIRcB cells): more potent
- IR phosphorylation by peptide alone (insulin receptor (IR) [1]; without insulin, hIRcB cells): no effect on IR phosphorylation
- insulin-stimulated glucose uptake (C2C12 myotubules): significantly increased
- insulin-induced phosphorylation of IR, IRS and Akt (IR, IRS and Akt; 2 nM UCN and/or insulin 0-50 nm, 1 min): enhanced
- insulin-induced phosphorylation of IR (IR, IRS and Akt; in the presence of UCN, C2C12 myotubules): enhanced
- blood glucose level, UCN alone (ICR mice; 0.1 μM UCN): down-regulated the blood glucose level
- blood glucose level, UCN alone (ICR mice; from 100 pM up): enhanced blood glucose level
- change of blood glucose level, UCN alone (STZ-mouse; UCN (0.1 μM) i.v., 45 min): no effect on the change of blood glucose level
- blood glucose level, UCN co-injected with insulin (STZ-mouse; UCN co-injected with inactive concentration of insulin (1 nM)): significantly decreased
- insulin-induced IR phosphorylation in mouse skeletal muscle (insulin receptor (IR) [2]): significantly sensitized insulin-induced IR phosphorylation
